Results as given in patent US6750222B2, “Substituted phenyl derivatives” (Bayer CropScience GmbH, priority 2001, dated 2004).

Key:
[1] = system: Sinapis alba, Chrysanthemum segetum, Avena sativa, Stellaria media, Echinochloa crus-galli, Lolium multiflorum, Setaria spp., Abutilon theophrasti, Amaranthus …; experiment: Pre-emergence effect on weeds (greenhouse pot test); format: in vivo, monocotyledonous and dicotyledonous weed plants; conditions: application rate of 2 kg and less of active substance per hectare; scored visually after 3 to 4 weeks by comparison with untreated controls
Description: 1. Pre-Emergence Effect on Weeds
Seeds or rhizome pieces of monocotyledonous and dicotyledonous weed plants were placed in sandy loam soil in cardboard pots and covered with soil. The compounds according to the invention which were formulated in the form of wettable powders or emulsion concentrates were then applied to the surface of the soil cover in the form of aqueous suspensions or emulsions at an application rate of 600 to 800 l of water/ha (converted), in various dosages.
After the treatment, the pots were placed in a greenhouse and kept under good growth conditions for the weeds. After the test plants had emerged, the damage to the plants or the negative effect on the emergence was scored visually after a test period of 3 to 4 weeks by comparison with untreated controls. As shown by the test results, compounds according to the invention have good herbicidal pre-emergence activity against a broad spectrum of weed grasses and broad-leafed weeds.

[2] = system: Sinapis alba, Echinochloa crus-galli, Lolium multiflorum, Chrysanthemum segetum, Avena sativa, Stellaria media, Setaria spp., Abutilon theophrasti, Amaranthus …; experiment: Post-emergence effect on weeds (greenhouse pot test); format: in vivo, monocotyledonous and dicotyledonous weeds; conditions: application rate of 2 kg and less of active substance per hectare; treated at three-leaf stage; scored visually after about 3 to 4 weeks by comparison with untreated controls
Procedure: 2. Post-Emergence Effect on Weeds
Seeds or rhizome pieces of monocotyledonous and dicotyledonous weeds were placed in sandy loam soil in plastic pots, covered with soil and grown in a greenhouse under good growth conditions. Three weeks after sowing, the test plants were treated at the three-leaf stage. The compounds according to the invention which were formulated as wettable powders or emulsion concentrates were sprayed, at various dosages, onto the green parts of the plants at an application rate of 600 to 800 l of water/ha (converted). After the test plants had remained in the greenhouse for about 3 to 4 weeks under ideal growth conditions, the effect of the preparations was scored visually by comparison with untreated controls. The agents according to the invention also have good herbicidal activity post-emergence against a broad spectrum of economically important weed grasses and broad-leafed weeds.

melting point [°C] | Compound | herbicidal activity against harmful plants pre-emergence [1] | herbicidal activity against harmful plants post-emergence [2]
– | CCOCCOCCOc1cc(C#N)cc(Oc2cc(C(F)(F)F)nn2C)c1 [Example 1171a] | very good herbicidal activity | very good herbicidal activity
84 | Cn1nc(C(F)(F)F)cc1Oc1cc(F)cc(C#N)c1 [Chemical Example 2, 3-Fluoro-5-(1-methyl-3-trifluoromethylpyrazol-5-yloxy)benzonitrile] | – | –
– | N#Cc1cc(Oc2csc(C(F)(F)F)c2)cc(Oc2csc(C(F)(F)F)c2)c1 [Example 74c] | very good herbicidal activity | very good herbicidal activity
– | N#Cc1cc(Oc2ccnc(C(F)(F)F)c2)cc(Oc2ccnc(C(F)(F)F)c2)c1 [Example 73d] | very good herbicidal activity | very good herbicidal activity
– | Cn1nc(C(F)(F)F)cc1Oc1cc(C#N)cc(Oc2cc(C(F)(F)F)nn2C)c1 [Example 76a] | very good herbicidal activity | very good herbicidal activity
– | N#Cc1cc(C#N)cc(Oc2csc(C(F)(F)F)c2)c1 [Example 1140c] | very good herbicidal activity | very good herbicidal activity
139 | Cn1nc(C(F)(F)F)cc1Oc1cc(C#N)cc(Oc2cc(C(F)(F)F)nn2C)c1 [Chemical Example 1, 3,5-Bis-(1-methyl-3-trifluoromethylpyrazol-5-yloxy)benzonitrile] | – | –
– | Cn1nc(C(F)(F)F)cc1Oc1cc(C#N)cc(-n2ccc(C(F)(F)F)n2)c1 [Example 1161a] | very good herbicidal activity | very good herbicidal activity
– | Cn1nc(C(F)(F)F)cc1Oc1cc(C#N)cc(OCC2COC(C)(C)O2)c1 (stereo not shown) [Example 1182a] | very good herbicidal activity | very good herbicidal activity
– | N#Cc1cc(Oc2cccc(C(F)(F)F)c2)cc(Oc2cccc(C(F)(F)F)c2)c1 [Example 62b] | very good herbicidal activity | very good herbicidal activity
– | Cn1nc(C(F)(F)F)cc1Oc1cc(C#N)cc(Oc2cccc(C(F)(F)F)c2)c1 [Example 62a] | very good herbicidal activity | very good herbicidal activity
– | Cn1nc(C(F)(F)F)cc1Oc1cc(F)cc([N+](=O)[O-])c1 [Example 1156a] | very good herbicidal activity | very good herbicidal activity
– | N#Cc1cc(C#N)cc(Oc2ccnc(C(F)(F)F)c2)c1 [Example 1140d] | very good herbicidal activity | very good herbicidal activity
– | Cn1nc(C(F)(F)F)cc1Oc1cc(Oc2cc(C(F)(F)F)nn2C)cc([N+](=O)[O-])c1 [Example 397a] | very good herbicidal activity | very good herbicidal activity
– | Cn1nc(C(F)(F)F)cc1Oc1cc(F)cc(C#N)c1 [Example 1136a] | very good herbicidal activity | very good herbicidal activity
– | COCCCOc1cc(C#N)cc(Oc2cc(C(F)(F)F)nn2C)c1 [Example 1177a] | very good herbicidal activity | very good herbicidal activity
– | CC(C)OCCOc1cc(C#N)cc(Oc2cc(C(F)(F)F)nn2C)c1 [Example 1169a] | very good herbicidal activity | very good herbicidal activity
– | Cn1nc(C(F)(F)F)cc1Oc1cc(C#N)cc(OCC2CCCO2)c1 (stereo not shown) [Example 1180a] | very good herbicidal activity | very good herbicidal activity
– | N#Cc1cc(F)cc(Oc2csc(C(F)(F)F)c2)c1 [Example 1136c] | very good herbicidal activity | very good herbicidal activity
– | Cn1nc(C(F)(F)F)cc1Oc1cc(Oc2cc(C(F)(F)F)nn2C)cc(C(N)=O)c1 [Example 77a] | very good herbicidal activity | very good herbicidal activity
116 to 117 | Cn1nc(C(F)(F)F)cc1Oc1cc(C#N)cc(-n2ccc(C(F)(F)F)n2)c1 [Chemical Example 5, 3-(1-Methyl-3-trifluoromethylpyrazol-5-yloxy)-5-(3-trifluoromethylpyrazol-1-yl)benzonitrile] | – | –
– | Cn1nc(C(F)(F)F)cc1Oc1cc(C#N)cc(Oc2cc(C(F)(F)F)n(C)n2)c1 [Example 75a] | very good herbicidal activity | very good herbicidal activity
– | Cn1nc(C(F)(F)F)cc1Oc1cc(C#N)cc(C#N)c1 [Example 1140a] | very good herbicidal activity | very good herbicidal activity
